In patent publication US8101740B2, “Positron emission tomography probes for imaging immune activation and selected cancers” (The Regents of the University of California, priority 2007, dated 2012):

Tests used:
[1] = probe accumulation in necropsy tissue of mouse strains incl. BDC-2.5 (type 1 diabetes model); type: in vivo, BDC-2.5 mice; settings: necropsy tissue samples
From the text: Elevated retention of the [^18F]D-FAC probe in joints and the intestine over physiologic uptake values may reflect the presence of an active inflammatory processes that is characteristic of rheumatoid arthritis and inflammatory bowel disease, respectively. [^18F]D-FAC microPET can also be used to detect overt autoreactive immune activation in a BDC-2.5 mouse model that is prone to type 1 diabetes (FIG. 8). In FIG. 8A, the 1 mm coronal sections illustrate the pattern of [^18F]D-FAC probe accumulation in BDC-2.5 mice. (Abbreviations: CV, cervical LNs; AX, axillary LNs; BR, brachial LNs; IN, inguinal LNs; THY, Thymus; GI, Gastrointestinal tract; H, heart.) In FIG. 8B, [^18F]D-FAC accumulation is measured in necropsy tissue samples from BL/6, BALB/c, NOD LTJ, and BDC-2.5 mice.
FIG. 8 presents the results of microPET/CT imaging performed on BDC-2.5 T cell receptor transgenic mice injected with the [^18F]D-FAC probe. The BDC-2.5 strain is a well-established animal model for type I (autoimmunity-based) diabetes. In FIG. 8A, the 1 mm coronal sections illustrate the pattern of the [^18F]D-FAC probe accumulation in BDC-2.5 mice. (Abbreviations: CV, cervical LNs; AX, axillary LNs; BR, brachial LNs; IN, inguinal LNs; THY, Thymus; GI, Gastrointestinal tract; H, heart.) In FIG. 8B, [^18F]D-FAC accumulation is measured in necropsy tissue samples from BL/6, BALB/c, NOD Ltj and BDC-2.5 mice. […]

[2] = microPET/CT in Fas^1pr systemic autoimmunity model; type: in vivo, B6-MRL-Fas^1pr/J mice
[3] = biodistribution and radiation dosimetry in healthy human subjects; type: in vivo
Procedure: [^18F]D-FAC was evaluated in humans to a preliminary degree, whereby we investigated the normal biodistribution and radiation dosimetry of [^18F]D-FAC in human subjects (FIG. 16). […] Emission scans were acquired 20, 48, and 76 min post injection and radiation dosimetry estimates were calculated using the Olinda® software. […] The radiation dosimetry estimates show high agreement with the dosimetry results obtained from the studies in mice. The dose-limiting organs were the urinary bladder wall and the kidneys.

[4] = test system: L1210 wild type or 10K subcutaneous tumors; assay: PET of subcutaneous L1210 wild type and 10K tumors; type: in vivo, SCID mice; settings: 4 days after injection
Procedure: To investigate whether [^18F]D-FAC PET can distinguish gemcitabine-sensitive cancer cells from the resistant cancer cells in vivo, mice were injected with L1210 wild type or 10K cells to establish subcutaneous tumors; mice were scanned with [^18F]FDG PET to confirm that implanted cells were viable and growing in vivo and [^18F]D-FAC PET scans were carried out to compare D-FAC accumulation in gemcitabine sensitive versus resistant cells. […] The mice were injected 4 days prior to imaging.
Mice were challenged with the MoMSV onco-retrovirus.

With `Nc1ccn([C@@H]2O[C@H](CO)[C@@H](O)[C@@H]2[18F])c(=O)n1` [[^18F]D-FAC, 1-(2′-deoxy-2′-[^18F]fluoro-β-D-arabinofuranosyl)cytosine] the “accumulation in spleen and lymph nodes among BL/6, BALB/c, NOD Ltj and BDC-2.5 mice” value [1] was “highest levels”, the “mice with enlarged LNs on microPET scans” value ([2]; Fas^1pr/J mice) was 9 out of 13 and the “mice with probe-positive LNs” value ([2]; wild type mice) was 2 out of 19. For the same molecule, the “absorbed dose, heart wall” value ([3]; 3 healthy male subjects) was 5.92E-02 rem/mCi, the “absorbed dose, kidneys” value ([3]; 3 healthy male subjects) was 1.06E-01 rem/mCi and the “absorbed dose, osteogenic cells” value ([3]; 3 healthy male subjects) was 6.69E-02 rem/mCi. For the same molecule, the “absorbed dose, small intestine” value ([3]; 3 healthy male subjects) was 5.80E-02 rem/mCi, the “absorbed dose, spleen” value ([3]; 3 healthy male subjects) was 7.36E-02 rem/mCi and the “absorbed dose, urinary bladder wall” value ([3]; 3 healthy male subjects) was 2.06E-01 rem/mCi. For the same molecule, the effective dose overall ([3]; 3 healthy male subjects) was 5.08E-02 rem/mCi, the “retention in the GI tract in humans in contrast to mice” value ([3]; human, in vivo) was “substantially lower” and the “organs with the highest accumulation” value ([3]; scans 20, 48 and 76 min post injection) was “the bladder, the kidneys, the spleen, the salivary glands, and the heart”. The “retention/visualization in dCK deficient, gemcitabine resistant tumors” value ([4]; L1210-10K) was “did not accumulate” and the “retention/visualization in dCK positive, gemcitabine sensitive tumors” value ([4]; L1210 WT) was “clearly detectable”.
